# Laboratory results reported in patent publication US8916555B2, “3,5-diaminopyrazole kinase inhibitors” (Axikin Pharmaceuticals, Inc., priority 2012, dated 2014).
# Experiments:
# [1] = target: T1, kinase domain protein of RC kinase (Homo sapiens, UniProt Q56UN5); assay: Enzymatic assay for kinase inhibitory activity (Crebtide substrate, LANCE readout), kinase domain protein; type: biochemical; settings: test compound 1 μM, ATP 1 μM, Crebtide 50 nM
# T1 sequence (Q56UN5 1061-1324 limits assumed): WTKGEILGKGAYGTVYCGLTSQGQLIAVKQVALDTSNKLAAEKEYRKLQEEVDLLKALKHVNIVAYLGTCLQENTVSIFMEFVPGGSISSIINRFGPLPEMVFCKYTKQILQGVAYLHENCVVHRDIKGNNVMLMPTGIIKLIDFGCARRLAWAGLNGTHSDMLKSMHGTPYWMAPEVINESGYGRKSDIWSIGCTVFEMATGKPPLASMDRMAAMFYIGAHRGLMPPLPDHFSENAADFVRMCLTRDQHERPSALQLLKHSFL
# Procedure: Solutions of a test compound, Crebtide (a substrate), a kinase, and ATP were prepared using 1×MAPK Buffer (50 mM HEPES, 1 mM EGTA, […], 10 mM MgCl2, 2 mM DTT, and 0.01% Tween 20).
# To each well, the test compound (1 μL) was first added (in duplicate) to reach a final concentration of 1 μM or 1×IC50 of the compound. The kinase (5 μL) was then added to each well to reach a final concentration of […] for the kinase domain or […] for the full-length domain. Each plate included a positive and negative controls in duplicate wells. Crebtide (2.5 μL) was then added to each well in duplicate to reach a final concentration of 50 nM. If the full-length kinase was used, the plates were incubated for 45 min at room temperature before proceeding further. ATP (2.5 μL) was added to each well to reach a final concentration of 1 μM for the kinase domain and 3 μM for the full-length.
# After the addition of ATP, the plates were incubated for 45 min at room temperature. During the incubation, an EDTA solution (40 mM) and anti-Crebtide ([…]) were prepared. Additionally, a detection buffer stock solution was diluted ten fold before use.
# After the incubation, the anti-Crebtide (5 μL) and EDTA (5 μL) were added to each well to reach their final concentrations of […] and 10 mM, respectively. The plates were allowed to develop at room temperature for 45 min. The plates were then read at 665 nm and 615 nm using Perkin Elmer Lance machine.
# The biological results of inhibition of the kinase domain protein of RC kinase are summarized in Tables 2 and 3, wherein A represents at least 50% inhibition of the RC kinase activity at 1 μM; B represents no greater than 50% but at least 20% inhibition of the RC kinase activity at 1 μM; C represents no greater than 20% but at least 5% inhibition of the RC kinase activity at 1 μM; and D represents no greater than 5% inhibition of the RC kinase activity at 1 μM.
SMILES,inhibition at 1 µM [1] [%],melting point [°C],Activity (inhibition of the RC kinase activity at 1 μM) [1]
N#Cc1c(Nc2cccc(Cl)c2)n[nH]c1NCc1ccc(Cl)cc1Cl [Compound C19],5 to 20,171 to 174,–
N#Cc1c(Nc2cccc(Cl)c2)n[nH]c1NCc1ccc(Cl)cc1O [Compound C24],5 to 20,172 to 180,–
COc1ccc(CNc2[nH]nc(Nc3cccc(Cl)c3)c2C#N)cc1F [Compound C27],5 to 20,97 to 105,–
"N#Cc1c(Nc2cccc(Cl)c2)n[nH]c1NCc1ccc(O)cc1 [Compound C31, 3-((3-chlorophenyl)amino)-5-((4-hydroxybenzyl)amino)-1H-pyrazole-4-carbonitrile]",≤ 5,205 to 208,–
"N#Cc1c(Nc2cccc(Cl)c2)n[nH]c1NCc1ccc(Oc2ccc(C(F)(F)F)cn2)cc1 [Compound C32, 3-((3-chlorophenyl)amino)-5-((4-((5-(trifluoromethyl)pyridin-2-yl)oxy)benzyl)amino)-1H-pyrazole-4-carbonitrile]",–,184 to 194,C (no greater than 20% but at least 5% inhibition of the RC kinase activity at 1 μM)
"N#Cc1c(Nc2cccnc2)n[nH]c1NCc1ccc(O)cc1 [Compound C33, 5-((4-hydroxybenzyl)amino)-3-(pyridin-3-ylamino)-1H-pyrazole-4-carbonitrile]",20 to 50,216 to 222,–

# Continued, in another order:
inhibition at 1 µM [1] [%],melting point [°C],SMILES,Activity (inhibition of the RC kinase activity at 1 μM) [1]
≥ 50,196 to 200,"NC(=O)c1c(Nc2cccc(Cl)c2)n[nH]c1NCc1ccc(O)cc1 [Compound D1, 3-((3-chlorophenyl)amino)-5-((4-hydroxybenzyl)amino)-1H-pyrazole-4-carboxamide]",–
20 to 50,214 to 216,NC(=O)c1c(Nc2ccccc2)n[nH]c1NCc1ccc(O)cc1 [Compound D2],–
–,193 to 199,"NC(=O)c1c(Nc2cccc(Cl)c2)n[nH]c1NCc1ccc(Oc2ncccn2)cc1 [Compound D32, 3-((3-chlorophenyl)amino)-5-((4-(pyrimidin-2-yloxy)benzyl)amino)-1H-pyrazole-4-carboxamide]",B (no greater than 50% but at least 20% inhibition of the RC kinase activity at 1 μM)
5 to 20,205 to 211,"NC(=O)c1c(Nc2cccc(Cl)c2)n[nH]c1NCc1ccc(Oc2ccc(C(F)(F)F)cn2)cc1 [Compound D33, 3-((3-chlorophenyl)amino)-5-((4-((5-(trifluoromethyl)pyridin-2-yl)oxy)benzyl)amino)-1H-pyrazole-4-carboxamide]",–
≥ 50,208 to 212,"NC(=O)c1c(Nc2cccnc2)n[nH]c1NCc1cccc(O)c1 [Compound D38, 5-((3-hydroxybenzyl)amino)-3-(pyridin-3-ylamino)-1H-pyrazole-4-carboxamide]",–
20 to 50,226 to 229,"COc1cc(CNc2[nH]nc(Nc3cccnc3)c2C(N)=O)ccc1F [Compound D40, 5-((4-fluoro-3-methoxybenzyl)amino)-3-(pyridin-3-ylamino)-1H-pyrazole-4-carboxamide]",–
20 to 50,225 to 229,"CN(C)c1ccc(CNc2[nH]nc(Nc3cccnc3)c2C(N)=O)c2ccccc12 [Compound D42, 5-(((4-(dimethylamino)naphthalen-1-yl)methyl)amino)-3-(pyridin-3-ylamino)-1H-pyrazole-4-carboxamide]",–
20 to 50,231 to 236,"CCOc1ccc2ccccc2c1CNc1[nH]nc(Nc2cccnc2)c1C(N)=O [Compound D43, 5-(((2-ethoxynaphthalen-1-yl)methyl)amino)-3-(pyridin-3-ylamino)-1H-pyrazole-4-carboxamide]",–
5 to 20,197 to 202,"COc1cc(OC)c(OC)cc1CNc1[nH]nc(Nc2cccnc2)c1C(N)=O [Compound D46, 3-(pyridin-3-ylamino)-5-((2,4,5-trimethoxybenzyl)amino)-1H-pyrazole-4-carboxamide]",–
